From patent publication US20130065883A1 (Centro Nacional de Investigaceiones Oncologicas (CNIO), priority 2010, published 2013)
Read-outs that look alike come from different tables or passages of the source.

Tests used:
[1] = Metabolic stability assay; type: in vitro ADME; conditions: percentage metabolic stability in human liver microsomes
Method: The metabolic stability assay was performed in Wuxi. 1 μM, 15 min. The kinase selectivity testing was performed in ProQinase GmbH, Germany.

panel of 24 kinases = test: Kinase selectivity testing (percentage inhibition of 24 kinases at 1 μM); type: biochemical; conditions: proquinase; for % inhibiton at 1 uM AKT2: AKT2, 1 uM; for % inhibiton at 1 uM CHK1: CHK1, 1 uM; for % inhibiton at 1 uM CK1 Alpha 1: CK1 Alpha 1, 1 uM; for % inhibiton at 1 uM FGFR1: FGFR1, 1 uM; for % inhibiton at 1 uM JAK2: JAK2, 1 uM; for % inhibiton at 1 uM MEK1: MEK1, 1 uM; for % inhibiton at 1 uM PAK1: PAK1, 1 uM; for % inhibiton at 1 uM PDK1: PDK1, 1 uM; for % inhibiton at 1 uM RPS5 KA1: RPS5 KA1, 1 uM; for % inhibiton at 1 uM SGK1: SGK1, 1 uM; for % inhibiton at 1 uM PLK1: PLK1, 1 uM
PIM-1 = target: T1, PIM-1 (Homo sapiens, UniProt P11309); test: PIM-1 biochemical assay (ADP Hunter); conditions: read-out: PIM1 IC50;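 also: recombinant human PIM-1 carrying a C-terminal His tag, kinase activity quantified via ADP formed as the direct enzymatic product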
T1 construct: histidine tag (C); made in house
T1 sequence (P11309 whole entry): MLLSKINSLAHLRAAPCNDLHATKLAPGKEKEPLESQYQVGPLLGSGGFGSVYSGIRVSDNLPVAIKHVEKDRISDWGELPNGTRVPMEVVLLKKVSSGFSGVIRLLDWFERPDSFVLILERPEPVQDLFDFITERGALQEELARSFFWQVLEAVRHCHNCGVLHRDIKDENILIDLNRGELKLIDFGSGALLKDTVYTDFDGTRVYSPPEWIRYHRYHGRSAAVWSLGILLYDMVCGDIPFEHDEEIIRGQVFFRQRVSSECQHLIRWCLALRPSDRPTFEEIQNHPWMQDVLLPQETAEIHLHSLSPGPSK

[2] = tested on: H1299 cells overexpressing Pim1 (H1299Pim1); test: BAD S112 phosphorylation inhibition assay (In Cell ELISA); type: cell-based; conditions: Homo sapiens, NCI-H1299, inhibition of Bad-phosphorylation, read-out: Cell assay BAD_P H1299 PIM1
FLT3 = target: T2, FLT3 (Homo sapiens, UniProt P36888); test: FLT3 biochemical assay (ADP Hunter);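 also: FLT3 enzymatic activity quantified through the ADP produced by the kinase reaction, detected with an ADP Hunter readout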
T2 sequence (P36888 27-993): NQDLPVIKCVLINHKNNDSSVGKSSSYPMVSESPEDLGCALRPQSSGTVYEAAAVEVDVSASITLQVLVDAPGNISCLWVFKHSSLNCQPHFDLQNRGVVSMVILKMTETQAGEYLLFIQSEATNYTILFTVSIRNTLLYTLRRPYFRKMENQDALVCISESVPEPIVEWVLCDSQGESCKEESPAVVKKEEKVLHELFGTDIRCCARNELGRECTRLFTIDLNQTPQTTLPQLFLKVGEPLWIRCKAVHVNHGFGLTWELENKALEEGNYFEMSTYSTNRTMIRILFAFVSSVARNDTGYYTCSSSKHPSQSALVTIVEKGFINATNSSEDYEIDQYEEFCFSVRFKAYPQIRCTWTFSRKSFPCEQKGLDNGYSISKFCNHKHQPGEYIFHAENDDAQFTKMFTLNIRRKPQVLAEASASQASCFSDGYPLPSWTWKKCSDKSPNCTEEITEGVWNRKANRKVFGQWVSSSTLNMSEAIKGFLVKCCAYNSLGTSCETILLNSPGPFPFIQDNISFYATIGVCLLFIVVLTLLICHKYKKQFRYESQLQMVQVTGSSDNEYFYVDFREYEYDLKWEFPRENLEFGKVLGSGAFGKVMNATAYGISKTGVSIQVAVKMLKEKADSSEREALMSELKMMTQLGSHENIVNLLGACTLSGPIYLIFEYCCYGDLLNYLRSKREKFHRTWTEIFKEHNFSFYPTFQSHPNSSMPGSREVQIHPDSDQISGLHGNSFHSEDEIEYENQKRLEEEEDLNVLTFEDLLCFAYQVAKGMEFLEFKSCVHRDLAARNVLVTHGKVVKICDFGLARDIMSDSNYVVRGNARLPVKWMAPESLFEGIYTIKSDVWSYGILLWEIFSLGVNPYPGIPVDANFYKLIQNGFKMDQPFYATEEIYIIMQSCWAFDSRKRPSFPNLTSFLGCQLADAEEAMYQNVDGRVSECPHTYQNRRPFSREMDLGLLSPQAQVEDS

PIM-2 = target: T3, PIM-2 (Homo sapiens, UniProt Q9P1W9); test: PIM-2 biochemical assay (ADP Hunter); conditions: semi-quantitative class; read-out: PIM2 IC50;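 also: recombinant N-terminally His-tagged human enzyme, kinase activity quantified by detection of ADP formed as the direct reaction product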
T3 construct: histidine tag (N); made in house
T3 sequence (Q9P1W9 whole entry): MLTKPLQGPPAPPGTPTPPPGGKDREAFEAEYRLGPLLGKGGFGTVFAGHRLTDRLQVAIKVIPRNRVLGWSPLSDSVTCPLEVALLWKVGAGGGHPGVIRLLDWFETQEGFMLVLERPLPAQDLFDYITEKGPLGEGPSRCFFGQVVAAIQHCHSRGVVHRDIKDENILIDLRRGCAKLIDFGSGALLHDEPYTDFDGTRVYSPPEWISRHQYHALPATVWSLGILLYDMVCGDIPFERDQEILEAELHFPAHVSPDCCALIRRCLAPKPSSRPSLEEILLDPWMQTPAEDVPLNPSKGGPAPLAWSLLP

PIM-3 = target: T4, PIM-3 (Homo sapiens, UniProt Q86V86); test: PIM-3 biochemical assay (ADP Hunter); conditions: read-out: PIM3 IC50;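 also: kinase activity read out as the quantity of ADP generated by the enzyme reaction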
T4 construct: purchased Millipore 14-738

[3] = actual IC50 value in parentheses

Compound | Stability in HLM [1] [%] | % inhibiton at 1 uM AKT2 (panel of 24 kinases) [%] | % inhibiton at 1 uM B_RAF V600E (panel of 24 kinases) [%] | % inhibiton at 1 uM CDK8 CYCC (panel of 24 kinases) [%] | % inhibiton at 1 uM CHK1 (panel of 24 kinases) [%] | % inhibiton at 1 uM CK1 Alpha 1 (panel of 24 kinases) [%] | % inhibiton at 1 uM DYRK 1A (panel of 24 kinases) [%] | % inhibiton at 1 uM EGF_R (panel of 24 kinases) [%] | % inhibiton at 1 uM FAK (panel of 24 kinases) [%] | % inhibiton at 1 uM FGFR1 (panel of 24 kinases) [%] | % inhibiton at 1 uM IGF1_R (panel of 24 kinases) [%] | % inhibiton at 1 uM IKK BETA (panel of 24 kinases) [%] | % inhibiton at 1 uM INS_R (panel of 24 kinases) [%] | % inhibiton at 1 uM JAK2 (panel of 24 kinases) [%] | % inhibiton at 1 uM KIT (panel of 24 kinases) [%] | % inhibiton at 1 uM MEK1 (panel of 24 kinases) [%] | % inhibiton at 1 uM MET (panel of 24 kinases) [%] | % inhibiton at 1 uM PAK1 (panel of 24 kinases) [%] | % inhibiton at 1 uM PDGFR Alpha (panel of 24 kinases) [%] | % inhibiton at 1 uM PDK1 (panel of 24 kinases) [%] | other results
FC(F)(F)Oc1cccc(-n2nnc3ccc(NCC4CC5(CCNCC5)C4)nc32)c1 [2-67] | 92.15 | 0 | 11 | 0 | 11 | 0 | 18 | 13 | 27 | 0 | 25 | 0 | 5 | 0 | 58 | 0 | 2 | 3 | 49 | 0 | % inhibiton at 1 uM RPS5 KA1 (panel of 24 kinases): 11%; % inhibiton at 1 uM SGK1 (panel of 24 kinases): 7%; % inhibiton at 1 uM SRC (panel of 24 kinases): 16%
FC(F)(F)c1cccc(-n2nnc3cc(Cl)c(NCC4CCNCC4)nc32)c1 [2-83] | 112.7 | 0 | 11 | 14 | 6 | 3 | 7 | 8 | 16 | 39 | 13 | 0 | 6 | 1 | 26 | 2 | 0 | 11 | 14 | 3 | IC50 (PIM-1; [3]): 21 nM; IC50 (PIM-1; semi-quantitative class): < 100 nM; EC50 [2]: 458 nM; IC50 (FLT3; [3]): 94 nM; IC50 (FLT3; semi-quantitative class): < 100 nM; % inhibiton at 1 uM PLK1 (panel of 24 kinases): 0%; % inhibiton at 1 uM RPS5 KA1 (panel of 24 kinases): 36%; % inhibiton at 1 uM SGK1 (panel of 24 kinases): 6%; % inhibiton at 1 uM SRC (panel of 24 kinases): 24%; IC50 (PIM-2): > 1000 nM; IC50 (PIM-3; [3]): 6 nM; IC50 (PIM-3; semi-quantitative class): < 100 nM
O[C@H]1CC[C@@H](Nc2nc3c(cc2Cl)nnn3-c2cccc(OC(F)(F)F)c2)CC1 [2-85] | – | – | – | – | – | – | – | – | – | – | – | – | – | – | – | – | – | – | – | – | IC50 (PIM-1; [3]): 74 nM; IC50 (PIM-1; semi-quantitative class): < 100 nM; EC50 [2]: 262 nM; IC50 (FLT3; semi-quantitative class): 100 to 1000 nM; IC50 (PIM-2): 100 to 1000 nM; IC50 (PIM-3; semi-quantitative class): 100 to 1000 nM
COc1cc(NCC2CCNCC2)nc2c1nnn2-c1cccc(N(C)C)c1 [2-87] | 86.25 | 4 | 0 | 0 | 3 | 5 | 1 | 0 | 6 | 6 | 0 | 0 | 0 | 1 | 10 | 7 | 0 | 10 | 0 | 9 | EC50 [2]: 100 nM; % inhibiton at 1 uM PLK1 (panel of 24 kinases): 2%; % inhibiton at 1 uM RPS5 KA1 (panel of 24 kinases): 12%; % inhibiton at 1 uM SGK1 (panel of 24 kinases): 9%; % inhibiton at 1 uM SRC (panel of 24 kinases): 0%
